What is called melting point is the temperature, or range, at which the solid turns liquid. With `O=c1c(-c2cccc(C(F)(F)F)c2)nn(CCCCC(F)(F)F)c2ccccc12`, the melting point lay within 80 to 81 °C.

`CCCCCn1nc(-c2cccc(C(F)(F)F)c2)c(=O)c2ccccc21` returned a melting point of 53 to 55 °C.

The compound `CCCCCn1nc(-c2cccc(C(F)(F)F)c2F)c(=O)c2cccc(OC)c21` gave a melting point of 82 to 84 °C.

In turn, `COc1cccc2c(=O)c(-c3cccc(Cl)c3Cl)nn(CCCNS(C)(=O)=O)c12` had a melting point of 66 to 68 °C.

`CS(=O)(=O)NCCCn1nc(-c2cccc(Cl)c2Cl)c(=O)c2ccc(C(F)(F)F)cc21` registered a melting point of 80 to 83 °C.

As for `CCCCCn1nc(-c2cccc(C(F)(F)F)c2F)c(=O)c2ccccc21`, the melting point fell in the range of 78 to 80 °C.

`CC[S+]([O-])CCn1nc(-c2cccc(Cl)c2Cl)c(=O)c2cccc(OC)c21` (stereo not drawn) gave a melting point of 128 to 130 °C.

Take `COc1cccc2c(=O)c(-c3cccc(Cl)c3Cl)nn(CCCN(C)S(C)(=O)=O)c12`: the melting point was in the range of 179 to 181 °C.

Regarding `CCSCCn1nc(-c2cccc(Cl)c2Cl)c(=O)c2ccc(Cl)cc21`, the melting point lay in the range of 75 to 77 °C.

As for `CC[S+]([O-])CCn1nc(-c2cccc(Cl)c2Cl)c(=O)c2ccc(Cl)cc21` (stereo not drawn), the melting point lay in the range of 75 to 77 °C.

As for `CCS(=O)(=O)CCn1nc(-c2cccc(Cl)c2Cl)c(=O)c2ccc(Cl)cc21`, the melting point was 76 to 79 °C.

`CCCCCn1nc(-c2cccc(OC(F)(F)F)c2)c(=O)c2cccc(OC)c21` returned a melting point of 50 to 52 °C.

Consider `CCOCCn1nc(-c2cccc(Cl)c2Cl)c(=O)c2cccc(OC)c21`, for which the melting point lay in the range of 134 to 135 °C.

In turn, `COc1cccc2c(=O)c(-c3cccc(Cl)c3Cl)nn(CCCNS(=O)(=O)N(C)C)c12` registered a melting point of 62 to 65 °C.

`O=c1c(-c2cccc(C(F)(F)F)c2F)nn(CCCCF)c2ccccc12` displayed a melting point of 91 to 93 °C.

For the compound `CCCCCn1nc(-c2cccc(C(F)(F)F)c2Cl)c(=O)c2cccc(OC)c21`, the melting point was in the range of 90 to 91 °C.

Compound `O=c1c(-c2cccc(C(F)(F)F)c2F)nn(CCCCC(F)(F)F)c2ccccc12` [Compound 4, 3-[2-Fluoro-3-(trifluoromethyl)phenyl]-1-(5,5,5-trifluoropentyl)cinnolin-4(1H)-one] came in with a melting point of 118 to 120 °C.

`O=c1c(-c2cccc(C(F)(F)F)c2F)nn(CCCC(F)(F)F)c2ccccc12` [Compound 6, 3-[2-Fluoro-3-(trifluoromethyl)phenyl]-1-(4,4,4-trifluorobutyl)cinnolin-4(1H)-one] displayed a melting point of 96 to 99 °C.

`CSCCCn1nc(-c2cccc(C(F)(F)F)c2F)c(=O)c2ccccc21` [Compound 7, 3-(2-Fluoro-3-(trifluoromethyl)phenyl)-1-[3-(methylthio)propyl]cinnolin-4(1H)-one] gave a melting point of 80 to 83 °C.

`COc1ccc(F)cc1-c1nn(CCCC(F)(F)F)c2ccccc2c1=O` [Compound 16, 3-(5-Fluoro-2-methoxyphenyl)-1-(4,4,4-trifluorobutyl)cinnolin-4(1H)-one] returned a melting point of 118 to 121 °C.

`O=c1c(-c2cccc(C(F)(F)F)c2Cl)nn(CCCCC(F)(F)F)c2cc(Cl)ccc12` [Compound 17, 7 Chloro-3-[2-chloro-3-(trifluoromethyl)phenyl]-1-(5,5,5-trifluoropentyl)-cinnolin-4(1H)-one] came in with a melting point of 137 to 138 °C.

The compound `COc1cccc2c(=O)c(-c3cccc(C(F)(F)F)c3F)nn(CCCNS(C)(=O)=O)c12` [Compound 18, N-(3-[3-[2-Fluoro-3-(trifluoromethyl)phenyl]-8-methoxy-4-oxocinnolin-1(4H)-yl]propyl)methanesulphonamide] displayed a melting point of 62 to 64 °C.

The compound `COc1cccc2c(=O)c(-c3cccc(C(F)(F)F)c3Cl)nn(CCCNS(C)(=O)=O)c12` [Compound 19, N-[3-[3-[2-Chloro-3-(trifluoromethyl)phenyl]-8-methoxy-4-oxocinnolin-1(4H)-yl]propyl]methanesulphonamide] yielded a melting point of 95 to 98 °C.

Consider `COc1cccc2c(=O)c(-c3cccc(F)c3C(F)(F)F)nn(CCCNS(C)(=O)=O)c12` [Compound 20, N-[3-[3-[3-Fluoro-2-(trifluoromethyl)phenyl]-8-methoxy-4-oxocinnolin-1(4H)-yl]propyl]methanesulphonamide], for which the melting point is 66 to 68 °C.

`COc1cccc2c(=O)c(-c3cccc(C(F)(F)F)c3F)nn(CCCS(C)(=O)=O)c12` [Compound 24, 3-[2-Fluoro-3-(trifluoromethyl)phenyl]-1-(3-(methanesulphonyl)propyl)-8-methoxy-1H-cinnolin-4-one]: the melting point is 138 to 139 °C.

Turning to `CS(=O)(=O)NCCCn1nc(-c2cccc(C(F)(F)F)c2F)c(=O)c2ccc(C(F)(F)F)cc21` [Compound 25, N-{3-[3-[2-Fluoro-3-(trifluoromethyl)phenyl]-4-oxo-7-trifluoromethyl-4H-cinnolin-1-yl]propyl}methanesulphonamide], the melting point is 128 to 130 °C.

As to `CS(=O)(=O)NCCCn1nc(-c2cccc(C(F)(F)F)c2F)c(=O)c2ccccc21` [Compound 27, N-{3-[3-[2-Fluoro-3-(trifluoromethyl)phenyl]-4-oxo-4H-cinnolin-1-yl]-propyl}methanesulphonamide], the melting point was 149 to 152 °C.

As for `CCSCCn1nc(-c2cccc(C(F)(F)F)c2F)c(=O)c2cccc(OC)c21` [Compound 29, 1-[2-(Ethylthio)ethyl]-3-[2-fluoro-3-(trifluoromethyl)phenyl]-8-methoxycinnolin-4(1H)-one], the melting point was in the range of 73 to 75 °C.

The compound `CC[S+]([O-])CCn1nc(-c2cccc(C(F)(F)F)c2F)c(=O)c2cccc(OC)c21` (stereo not drawn) [Compound 30, 1-[2-(Ethylsulphinyl)ethyl]-3-[2-fluoro-3-(trifluoromethyl)phenyl]-8-methoxycinnolin-4(1H)-one] showed a melting point of 99 to 101 °C.

`CCS(=O)(=O)CCn1nc(-c2cccc(C(F)(F)F)c2F)c(=O)c2cccc(OC)c21` [Compound 31, 1-[2-(Ethylsulphonyl)ethyl]-3-[2-fluoro-3-(trifluoromethyl)phenyl]-8-methoxycinnolin-4(1H)-one] gave a melting point of 138 to 139 °C.

With `COc1cccc2c(=O)c(-c3cccc(OC(F)(F)F)c3)nn(CCCNS(C)(=O)=O)c12` [Compound 35, N-(3-{8-Methoxy-4-oxo-3-[3-(trifluoromethoxy)phenyl]cinnolin-1(4H)-yl}propyl)methanesulphonamide], the melting point was 98 to 101 °C.

`COc1cccc2c(=O)c(-c3cccc(C(F)(F)F)c3F)nn(CCCNS(=O)(=O)C(F)(F)F)c12` [Compound 36, 1,1,1-Trifluoro-N-(3-{3-[2-fluoro-3-(trifluoromethyl)phenyl]-8-methoxy-4-oxocinnolin-1(4H)-yl}propyl)methanesulphonamide] gave a melting point of 127 to 130 °C.

Regarding `COc1cccc2c(=O)c(-c3cccc(C(F)(F)F)c3F)nn(CCCNC(=O)C(F)(F)F)c12` [Compound 37, 2,2,2-Trifluoro-N-(3-{3-[2-fluoro-3-(trifluoromethyl)phenyl]-8-methoxy-4-oxocinnolin-1(4H)-yl}propyl)acetamide], the melting point was in the range of 51 to 53 °C.

Compound `CS(=O)(=O)NCCCn1nc(-c2cccc(C(F)(F)F)c2F)c(=O)c2ccc(Cl)cc21` [Compound 38, N-(3-{7-Chloro-3-[2-fluoro-3-(trifluoromethyl)phenyl]-4-oxocinnolin-1(4H)-yl}propyl)methanesulphonamide] gave a melting point of 155 to 157 °C.

Compound `CCSCCn1nc(-c2cccc(C(F)(F)F)c2F)c(=O)c2ccc(Cl)cc21` [Compound 41, 7-Chloro-1-[2-(ethylthio)ethyl]-3-[2-fluoro-3-(trifluoromethyl)phenyl]cinnolin-4(1H)-one] had a melting point of 117 to 119 °C.

Consider `CCSCCn1nc(-c2cccc(OC(F)(F)F)c2)c(=O)c2ccc(Cl)cc21` [Compound 46, 7-Chloro-1-[2-(ethylthio)ethyl]-3-[3-(trifluoromethoxy)phenyl]cinnolin-4(1H)-one], for which the melting point was in the range of 66 to 68 °C.

On to `CCSCCn1nc(-c2cccc(OC(F)(F)F)c2)c(=O)c2cccc(OC)c21` [Compound 49, 1-[2-(Ethylthio)ethyl]-8-methoxy-3-[3-(trifluoromethoxy)phenyl]cinnolin-4(1H)-one], for which the melting point is 86 to 89 °C.

Regarding `CCS(=O)(=O)CCn1nc(-c2cccc(OC(F)(F)F)c2)c(=O)c2cccc(OC)c21` [Compound 50, 1-[2-(Ethylsulphonyl)ethyl]-8-methoxy-3-[3-(trifluoromethoxy)phenyl]cinnolin-4(1H)-one], the melting point was 130 to 132 °C.

For the compound `COc1cccc2c(=O)c(-c3cccc(C(F)(F)F)c3F)nn(CCNS(C)(=O)=O)c12` [Compound 55, N-(2-{3-[2-Fluoro-3-(trifluoromethyl)phenyl]-8-methoxy-4-oxocinnolin-1(4H)-yl}ethyl)methanesulphonamide], the melting point was 145 to 146 °C.
